Experimental findings from ChEMBL document CHEMBL1201862, “PubChem BioAssay data set” (2004) are described below.

Activity calls are given as the source filed them.

Experiment [1] has as its target T1, Endoribonuclease toxin MazF (Escherichia coli K-12, UniProt P0AE70).
T1 sequence (P0AE70 whole entry): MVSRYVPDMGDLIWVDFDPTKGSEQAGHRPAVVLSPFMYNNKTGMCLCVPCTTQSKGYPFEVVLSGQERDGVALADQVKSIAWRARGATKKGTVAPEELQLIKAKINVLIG
The experiment in a line: activation of MazEF endoribonuclease cleavage – biochemical, fluorescence, single-stranded RNA substrate, uHTS hits, dose response (AID 588481). In kind it is functional.

In another experiment the target is Protein Rev (Human immunodeficiency virus type 1 group M subtype B (isolate HXB2)(HIV-1), UniProt P04618). The experiment in a line: blockers of HIV Rev/RRE RNA complex – biochemical, fluorescence polarization, HIV-1, dose response (AID 434976). Further details: species or system Human immunodeficiency virus 1. In general terms: In fluorescence polarisation assays a small probe gives low polarisation when free and higher when bound to something large.

In experiment [2] the target is Female germline-specific tumor suppressor gld-1 (Caenorhabditis elegans, UniProt Q17339). The experiment in a line: blockers of GLD-1/TGE RNA complex formation – biochemical, fluorescence polarization, C. elegans, dose response (AID 2802).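 Also: fluorescence polarization of labeled TGE RNA bound by purified gld-1 protein.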
Experiment [3] has as its target T1, Endoribonuclease toxin MazF. The experiment in a line: substrate-only fluorescence increase artefacts – biochemical, single-stranded RNase substrate, counter-screen for MazEF activator project, dose response (AID 588502). In kind it is functional. (In general: The purpose of a counterscreen is to sort out artefacts and off-target activity.)
Experiment [4] concerns the target T2, SUMO-activating enzyme (Homo sapiens, UniProt Q9UBT2). The experiment in a line: blockers of UBC9-mediated SUMO conjugation – biochemical, AlphaScreen, SUMOylation inhibitor project, confirmation (AID 2018). In kind it is functional. For orientation: Bead proximity is the source of the signal in Alpha formats.
For experiment [5], the target named is T2, SUMO-activating enzyme. The experiment in a line: blockers of SAE1/SAE2–UBC9 SUMO transfer – biochemical, HTRF, uHTS, primary screen (AID 2006). It is filed as protein-complex assay.
Experiment [6] addresses Induced myeloid leukemia cell differentiation protein Mcl-1 (Homo sapiens, UniProt Q07820). It is filed as functional.
A short description of experiment [7]: RanGTP/importin-beta interaction disruptors – biochemical, plate reader, dry powder, dose response (AID 493048). Further details: species or system Homo sapiens.
In experiment [8] the target is T3, Oxysterols receptor LXR-beta (Homo sapiens, UniProt P55055).
T3 sequence (P55055 whole entry): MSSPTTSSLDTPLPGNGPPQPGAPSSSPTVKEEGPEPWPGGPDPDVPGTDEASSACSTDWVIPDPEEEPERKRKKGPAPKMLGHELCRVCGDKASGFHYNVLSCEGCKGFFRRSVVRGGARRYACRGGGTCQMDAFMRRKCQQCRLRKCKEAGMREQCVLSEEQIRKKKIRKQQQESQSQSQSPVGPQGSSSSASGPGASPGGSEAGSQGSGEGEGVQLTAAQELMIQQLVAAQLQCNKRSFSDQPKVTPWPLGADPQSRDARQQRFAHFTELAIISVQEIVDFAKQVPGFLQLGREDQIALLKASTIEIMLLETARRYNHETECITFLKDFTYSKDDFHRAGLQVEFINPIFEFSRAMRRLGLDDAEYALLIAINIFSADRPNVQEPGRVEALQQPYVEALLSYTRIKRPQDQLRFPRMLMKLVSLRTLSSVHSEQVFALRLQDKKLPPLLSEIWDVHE
The experiment in a line: LXR agonists, Gal4 luciferase reporter, dose response, counter-screen for ssDAF-12 agonist project, cell-based, luminescence, HEK293, S. stercoralis campaign (AID 720737). Particulars: read-out: IC50 (the source's name). It is filed as functional.

A short description of experiment [9]: Luminescence-based cell-based high throughput dose response assay to identify activators of the DAF-12 from the parasite S. stercoralis (ssDAF-12). It is filed as functional.
The target of experiment [10] is T4, Rac GTPase-activating protein 1 (Homo sapiens, UniProt Q9H0H5).
T4 sequence (Q9H0H5 whole entry): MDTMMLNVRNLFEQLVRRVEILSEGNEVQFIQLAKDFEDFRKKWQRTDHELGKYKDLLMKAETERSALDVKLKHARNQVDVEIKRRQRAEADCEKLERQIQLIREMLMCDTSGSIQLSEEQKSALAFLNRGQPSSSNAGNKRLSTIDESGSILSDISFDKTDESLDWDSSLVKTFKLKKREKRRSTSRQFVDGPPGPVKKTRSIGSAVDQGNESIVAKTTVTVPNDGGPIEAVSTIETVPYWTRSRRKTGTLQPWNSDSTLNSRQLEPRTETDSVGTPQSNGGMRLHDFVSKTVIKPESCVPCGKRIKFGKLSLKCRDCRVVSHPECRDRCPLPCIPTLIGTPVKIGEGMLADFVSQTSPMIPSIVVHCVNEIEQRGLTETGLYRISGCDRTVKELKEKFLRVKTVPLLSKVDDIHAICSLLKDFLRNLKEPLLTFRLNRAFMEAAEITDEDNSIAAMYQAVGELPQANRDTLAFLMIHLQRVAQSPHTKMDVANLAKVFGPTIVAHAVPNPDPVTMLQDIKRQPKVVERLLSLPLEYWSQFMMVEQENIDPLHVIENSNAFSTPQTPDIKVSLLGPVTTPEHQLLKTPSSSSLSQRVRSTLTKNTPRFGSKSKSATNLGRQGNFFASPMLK
The experiment in a line: blockers of MgcRacGAP-driven Rac1 GTP hydrolysis – biochemical, ADP Hunter fluorescence, primary and confirmatory, confirmation (AID 624330). In kind it is functional.

Experiment [11] addresses T5, Histone-lysine N-methyltransferase NSD2 (Homo sapiens, UniProt O96028).
T5 sequence (O96028 whole entry): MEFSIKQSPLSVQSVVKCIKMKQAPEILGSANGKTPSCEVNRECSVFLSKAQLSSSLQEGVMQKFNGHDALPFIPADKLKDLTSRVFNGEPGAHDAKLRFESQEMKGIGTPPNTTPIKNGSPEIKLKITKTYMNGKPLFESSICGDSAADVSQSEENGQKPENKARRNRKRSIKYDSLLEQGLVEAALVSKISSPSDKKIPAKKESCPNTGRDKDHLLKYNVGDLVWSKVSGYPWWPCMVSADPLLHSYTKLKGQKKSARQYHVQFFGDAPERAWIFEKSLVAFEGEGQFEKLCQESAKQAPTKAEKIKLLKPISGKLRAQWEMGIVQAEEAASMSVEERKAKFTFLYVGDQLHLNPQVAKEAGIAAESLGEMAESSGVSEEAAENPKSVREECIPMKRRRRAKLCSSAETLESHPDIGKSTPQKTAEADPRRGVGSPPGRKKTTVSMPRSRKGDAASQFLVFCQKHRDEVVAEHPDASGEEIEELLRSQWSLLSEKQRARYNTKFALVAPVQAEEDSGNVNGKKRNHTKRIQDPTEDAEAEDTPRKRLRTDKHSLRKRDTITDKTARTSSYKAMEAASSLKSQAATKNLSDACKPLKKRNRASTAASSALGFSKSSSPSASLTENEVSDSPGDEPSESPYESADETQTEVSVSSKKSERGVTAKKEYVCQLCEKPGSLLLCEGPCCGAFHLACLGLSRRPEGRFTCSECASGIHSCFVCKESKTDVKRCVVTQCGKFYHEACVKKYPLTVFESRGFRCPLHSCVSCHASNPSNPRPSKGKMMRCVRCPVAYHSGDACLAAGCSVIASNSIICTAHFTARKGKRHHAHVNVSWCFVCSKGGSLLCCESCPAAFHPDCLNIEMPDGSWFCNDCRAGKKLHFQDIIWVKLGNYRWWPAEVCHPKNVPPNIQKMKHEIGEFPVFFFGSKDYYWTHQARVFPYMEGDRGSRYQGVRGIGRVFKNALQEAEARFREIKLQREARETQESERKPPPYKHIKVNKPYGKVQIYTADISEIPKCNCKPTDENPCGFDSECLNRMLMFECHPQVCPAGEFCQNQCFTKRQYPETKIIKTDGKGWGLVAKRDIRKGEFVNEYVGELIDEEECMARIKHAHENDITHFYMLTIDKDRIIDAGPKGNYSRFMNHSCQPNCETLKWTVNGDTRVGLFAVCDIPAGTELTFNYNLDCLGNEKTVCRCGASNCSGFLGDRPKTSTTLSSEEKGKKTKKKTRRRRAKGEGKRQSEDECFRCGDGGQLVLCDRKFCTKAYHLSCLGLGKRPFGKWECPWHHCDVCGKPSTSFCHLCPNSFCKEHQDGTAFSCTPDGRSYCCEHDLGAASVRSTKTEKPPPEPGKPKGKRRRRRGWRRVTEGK
It is filed as biochemical.

A short description of experiment [12]: Cytotoxicity screening for potential Inhibitors of Bacterial Capsule Biogenesis. [Related pubchem assays (depositor defined):AID488970]. It is filed as functional.
Experiment [13] can be described thus: viability loss in HeLa cells – cytotoxicity control for MgcRacGAP inhibitor project, dose response (AID 624300). In kind it is functional.
Experiment [14] is described as follows: loss of viability in HepG2 cells – cell-based, CellTiter-Glo, cherry-picked, cytotoxicity control for Shn3 inhibitor project, dose response (AID 624134). It is filed as functional.
Experiment [15] is described as follows: reduction of Shn3 3'UTR-driven luciferase in osteoblasts – cell-based, Clone20 osteoblasts, firefly luciferase, cherry-picked, dose response (AID 624132).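 Also: firefly luciferase luminescence from reporter carrying the Shn3 3'UTR in osteoblasts.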 In kind it is functional.
Experiment [16] is described as follows: non-specific 3'UTR reporter inhibition in Clone20-Shn3RL – cell-based, Renilla luciferase, cherry-picked, counter-screen for Shn3 inhibitor project, dose response (AID 624133). It is filed as functional.
The target in experiment [17] is T6, DNA repair protein RAD52 homolog (Homo sapiens, UniProt P43351).
T6 sequence (P43351 whole entry): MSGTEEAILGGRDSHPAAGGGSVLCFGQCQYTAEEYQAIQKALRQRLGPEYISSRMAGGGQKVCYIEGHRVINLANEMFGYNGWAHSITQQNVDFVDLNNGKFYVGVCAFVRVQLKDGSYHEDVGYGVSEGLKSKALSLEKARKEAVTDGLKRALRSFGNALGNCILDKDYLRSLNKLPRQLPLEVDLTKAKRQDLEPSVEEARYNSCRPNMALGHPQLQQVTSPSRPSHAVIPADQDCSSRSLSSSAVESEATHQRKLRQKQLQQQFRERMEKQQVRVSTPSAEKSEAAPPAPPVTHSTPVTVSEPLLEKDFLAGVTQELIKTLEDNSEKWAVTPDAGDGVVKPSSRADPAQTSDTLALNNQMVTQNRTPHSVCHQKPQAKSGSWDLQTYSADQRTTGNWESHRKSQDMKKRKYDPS
In kind it is functional, biochemical.

Another experiment deals with Paired box protein Pax-8 (Homo sapiens, UniProt Q06710). The experiment in a line: PAX8 transcriptional activity inhibition in RMG-I – RMG-I cells, luciferase, cherry-pick, dose response (AID 687027).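 Also: luciferase reporter driven by Pax8 target thyroperoxidase promoter measured by SteadyGlo luminescence.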 It is filed as functional, cell-based.
Experiment [18] has as its target Phosphoethanolamine/phosphocholine phosphatase (Homo sapiens, UniProt Q8TCT1). The experiment in a line: SAR assay for compounds that inhibit PHOSPHO1. [Related pubchem assays (depositor defined):AID1545, AID1565, AID1574].
Experiment [19] has as its target T7, Mannose-6-phosphate isomerase (Homo sapiens, UniProt P34949).
T7 sequence (P34949 whole entry): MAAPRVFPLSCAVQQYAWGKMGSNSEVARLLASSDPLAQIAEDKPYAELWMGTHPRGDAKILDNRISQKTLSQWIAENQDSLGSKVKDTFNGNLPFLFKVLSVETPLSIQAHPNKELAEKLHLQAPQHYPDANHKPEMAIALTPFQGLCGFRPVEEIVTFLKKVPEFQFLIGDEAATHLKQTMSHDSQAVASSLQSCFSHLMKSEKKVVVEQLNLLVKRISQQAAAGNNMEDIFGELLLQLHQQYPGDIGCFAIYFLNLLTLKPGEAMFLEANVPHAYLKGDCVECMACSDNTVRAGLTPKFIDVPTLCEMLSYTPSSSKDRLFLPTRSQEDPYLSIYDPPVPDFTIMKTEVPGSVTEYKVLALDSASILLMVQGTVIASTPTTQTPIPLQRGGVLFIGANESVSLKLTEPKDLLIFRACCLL
The experiment in a line: phosphomannose isomerase inhibition – biochemical, fluorescence intensity, confirmation (AID 1535).

For a further experiment, the target named is Phosphomannomutase 2 (Homo sapiens, UniProt O15305). The experiment in a line: Counter screen SAR assay for PMM2 inhibitors via a fluorescence intensity assay. [Related pubchem assays (depositor defined):AID1545, AID1574].
Chain of Phosphomannomutase 2 (O15305 whole entry): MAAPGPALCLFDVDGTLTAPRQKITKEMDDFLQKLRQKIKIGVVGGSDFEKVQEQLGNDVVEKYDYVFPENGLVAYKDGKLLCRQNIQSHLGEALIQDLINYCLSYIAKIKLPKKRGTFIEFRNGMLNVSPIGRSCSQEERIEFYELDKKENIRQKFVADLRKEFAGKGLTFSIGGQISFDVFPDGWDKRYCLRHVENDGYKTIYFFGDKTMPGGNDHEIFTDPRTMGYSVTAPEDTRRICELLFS

T2 sequence (Q9UBE0 whole entry): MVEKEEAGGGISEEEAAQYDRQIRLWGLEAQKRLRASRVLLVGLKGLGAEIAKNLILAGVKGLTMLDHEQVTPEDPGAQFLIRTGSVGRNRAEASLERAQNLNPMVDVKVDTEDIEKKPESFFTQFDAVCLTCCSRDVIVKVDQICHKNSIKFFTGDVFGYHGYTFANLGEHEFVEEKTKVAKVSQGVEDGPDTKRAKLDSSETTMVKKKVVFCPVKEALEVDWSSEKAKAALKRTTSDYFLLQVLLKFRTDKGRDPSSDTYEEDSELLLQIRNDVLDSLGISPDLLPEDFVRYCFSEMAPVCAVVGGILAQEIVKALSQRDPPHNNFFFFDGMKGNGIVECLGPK
T2 sequence (Q9UBT2 whole entry): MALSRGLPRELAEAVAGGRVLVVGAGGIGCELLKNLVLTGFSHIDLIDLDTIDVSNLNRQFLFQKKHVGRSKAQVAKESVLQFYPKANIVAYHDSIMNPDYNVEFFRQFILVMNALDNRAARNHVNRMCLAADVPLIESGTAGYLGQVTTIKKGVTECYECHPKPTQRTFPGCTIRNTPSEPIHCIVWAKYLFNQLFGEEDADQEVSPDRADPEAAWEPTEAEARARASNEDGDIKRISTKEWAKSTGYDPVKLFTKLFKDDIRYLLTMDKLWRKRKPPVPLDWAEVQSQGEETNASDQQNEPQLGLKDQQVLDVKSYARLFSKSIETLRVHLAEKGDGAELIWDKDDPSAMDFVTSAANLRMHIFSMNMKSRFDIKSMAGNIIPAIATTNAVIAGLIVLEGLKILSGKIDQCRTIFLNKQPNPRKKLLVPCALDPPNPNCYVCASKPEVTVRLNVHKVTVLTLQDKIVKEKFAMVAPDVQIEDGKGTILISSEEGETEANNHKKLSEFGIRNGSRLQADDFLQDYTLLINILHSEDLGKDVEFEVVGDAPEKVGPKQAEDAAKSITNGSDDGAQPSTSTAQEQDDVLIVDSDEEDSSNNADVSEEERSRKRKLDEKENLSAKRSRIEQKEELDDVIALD
Chain of Female germline-specific tumor suppressor gld-1 (Q17339 whole entry): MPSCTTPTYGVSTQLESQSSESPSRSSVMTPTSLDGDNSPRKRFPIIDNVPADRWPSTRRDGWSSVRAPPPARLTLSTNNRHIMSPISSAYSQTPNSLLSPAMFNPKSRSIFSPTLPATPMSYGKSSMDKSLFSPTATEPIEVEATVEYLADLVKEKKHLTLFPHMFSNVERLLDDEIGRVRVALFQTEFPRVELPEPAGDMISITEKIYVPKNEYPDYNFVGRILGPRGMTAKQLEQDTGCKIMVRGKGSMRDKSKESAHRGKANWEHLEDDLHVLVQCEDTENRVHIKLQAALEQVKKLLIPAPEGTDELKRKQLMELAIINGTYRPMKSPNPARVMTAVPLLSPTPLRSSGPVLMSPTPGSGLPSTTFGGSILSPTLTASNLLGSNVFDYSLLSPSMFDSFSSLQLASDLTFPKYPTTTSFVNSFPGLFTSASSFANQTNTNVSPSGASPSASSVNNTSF
Chain of Paired box protein Pax-8 (Q06710 whole entry): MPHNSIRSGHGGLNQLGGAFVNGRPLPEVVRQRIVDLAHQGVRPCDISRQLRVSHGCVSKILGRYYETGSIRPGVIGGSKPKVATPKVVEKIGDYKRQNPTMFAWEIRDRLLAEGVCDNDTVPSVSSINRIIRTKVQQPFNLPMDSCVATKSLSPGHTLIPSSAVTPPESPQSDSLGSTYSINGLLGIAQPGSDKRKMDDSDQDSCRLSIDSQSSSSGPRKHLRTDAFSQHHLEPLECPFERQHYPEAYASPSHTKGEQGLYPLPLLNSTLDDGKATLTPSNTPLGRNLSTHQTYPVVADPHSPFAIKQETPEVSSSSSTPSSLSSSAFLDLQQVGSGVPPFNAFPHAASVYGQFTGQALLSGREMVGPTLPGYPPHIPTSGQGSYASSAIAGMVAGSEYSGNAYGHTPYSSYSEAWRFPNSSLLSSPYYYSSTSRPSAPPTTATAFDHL
Chain of Protein Rev (P04618 whole entry): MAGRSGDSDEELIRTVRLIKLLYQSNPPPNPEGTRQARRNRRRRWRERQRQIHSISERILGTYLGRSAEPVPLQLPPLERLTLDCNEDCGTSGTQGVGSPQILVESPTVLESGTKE
Chain of Induced myeloid leukemia cell differentiation protein Mcl-1 (Q07820 whole entry): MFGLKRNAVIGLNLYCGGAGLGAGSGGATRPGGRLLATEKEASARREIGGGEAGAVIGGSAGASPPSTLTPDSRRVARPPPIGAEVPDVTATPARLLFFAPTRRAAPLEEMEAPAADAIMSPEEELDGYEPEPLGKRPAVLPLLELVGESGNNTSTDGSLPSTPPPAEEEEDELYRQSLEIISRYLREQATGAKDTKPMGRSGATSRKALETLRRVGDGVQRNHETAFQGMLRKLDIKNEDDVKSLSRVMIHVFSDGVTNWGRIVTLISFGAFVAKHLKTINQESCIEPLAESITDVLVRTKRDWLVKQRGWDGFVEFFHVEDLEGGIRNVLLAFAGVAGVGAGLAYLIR
Chain of Phosphoethanolamine/phosphocholine phosphatase (Q8TCT1 whole entry): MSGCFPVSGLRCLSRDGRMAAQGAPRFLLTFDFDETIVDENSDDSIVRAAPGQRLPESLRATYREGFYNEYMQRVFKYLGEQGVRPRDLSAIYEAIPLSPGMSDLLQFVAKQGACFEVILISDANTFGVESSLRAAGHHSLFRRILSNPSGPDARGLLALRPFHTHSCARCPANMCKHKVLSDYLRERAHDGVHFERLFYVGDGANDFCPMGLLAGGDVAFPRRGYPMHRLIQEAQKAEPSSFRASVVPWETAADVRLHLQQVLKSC

`COc1ccc(N2CCCC2)c(NC(=O)c2ccc(Br)o2)c1`: the EC50 in experiment [1] and in experiment [3] was > 99 µM (inactive) in each case. Moreover, the IC50 was > 75.4 µM (not active) on Protein Rev and 21.3 µM (inactive) in [2].
Regarding `Cc1cc(=O)oc2cc(OCc3ccc(C(=O)OCC(=O)Nc4ccc(N(C)C)cc4)cc3)ccc12`, the values for the IC50 (at SUMO-activating enzyme [4]; on SUMO-activating enzyme [5]; in experiment [6]) were 36.3 µM (active), 22.1 µM (active) and 6.17 µM (active), respectively.
For `Cc1ccc(S(=O)(=O)c2cc3c(=O)n4cccc(C)c4nc3n(C3CCCCC3)c2=N)cc1`, the half-maximal activity concentration (AC50) in experiment [7] is 410 µM (active).
Take `CCN(CC)CCCNc1[nH]c2ccccc2c2nc3ccc(OC)cc3c1-2`: the EC50 in experiment [8] is > 67.5 µM (inactive). The IC50 in experiment [9] was > 67.5 µM (inactive); in [10], 31.7 µM (active). Besides, the AC50 in experiment [11] is > 20 µM (inactive); in [14], 4.9 µM (active); in experiment [15], 12.3 µM (active); in [16], 11.6 µM (active); in [17], < 0.15 µM (active); at Paired box protein Pax-8 it was 6.91 µM (active). In addition, the CC50 in experiment [12] was 1.41 µM (active); in [13], 15.1 µM (active).
Turning to `O=c1c2ccccc2sn1-c1ccc(F)c(Cl)c1`, the IC50 in experiment [18] was 1.79 µM (inactive); in experiment [19], > 50 µM (inactive); at Phosphomannomutase 2, > 100 µM (inactive).

What is called IC50 is the concentration that inhibits the measured activity by half. Broadly, the AC50 is the concentration at which the activity in the assay is half-maximal. A word on the CC50: it is the concentration giving 50% cytotoxicity.
